According to ChEMBL document CHEMBL1201862, “PubChem BioAssay data set” (2004):
Activity calls are given as the source filed them.

Assays:
[1] = biological target: T1, RNA-binding protein pos-1 (Caenorhabditis elegans, UniProt G5EF15); experiment: inhibitors of POS-1/mex-3 RNA binding, dose response, biochemical, fluorescence polarization (AID 1964);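 note: purified POS-1 fused to maltose binding protein made in E. coli; potency of compounds blocking POS-1 binding to fluorescent RNA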
T1 sequence (G5EF15 whole entry): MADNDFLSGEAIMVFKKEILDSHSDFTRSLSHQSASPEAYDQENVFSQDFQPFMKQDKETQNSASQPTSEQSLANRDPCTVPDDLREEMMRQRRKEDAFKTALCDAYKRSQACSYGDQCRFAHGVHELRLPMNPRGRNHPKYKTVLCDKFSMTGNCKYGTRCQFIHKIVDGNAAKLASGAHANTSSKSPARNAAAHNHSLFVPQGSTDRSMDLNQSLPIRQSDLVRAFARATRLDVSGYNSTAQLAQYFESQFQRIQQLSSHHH

[2] = biological target: T2, Zinc finger protein mex-5 (Caenorhabditis elegans, UniProt Q9XUB2); experiment: MEX-5/TCR-2 RNA interaction inhibitors, dose response, biochemical, C. elegans, fluorescence polarization (AID 1960)
T2 sequence (Q9XUB2 whole entry): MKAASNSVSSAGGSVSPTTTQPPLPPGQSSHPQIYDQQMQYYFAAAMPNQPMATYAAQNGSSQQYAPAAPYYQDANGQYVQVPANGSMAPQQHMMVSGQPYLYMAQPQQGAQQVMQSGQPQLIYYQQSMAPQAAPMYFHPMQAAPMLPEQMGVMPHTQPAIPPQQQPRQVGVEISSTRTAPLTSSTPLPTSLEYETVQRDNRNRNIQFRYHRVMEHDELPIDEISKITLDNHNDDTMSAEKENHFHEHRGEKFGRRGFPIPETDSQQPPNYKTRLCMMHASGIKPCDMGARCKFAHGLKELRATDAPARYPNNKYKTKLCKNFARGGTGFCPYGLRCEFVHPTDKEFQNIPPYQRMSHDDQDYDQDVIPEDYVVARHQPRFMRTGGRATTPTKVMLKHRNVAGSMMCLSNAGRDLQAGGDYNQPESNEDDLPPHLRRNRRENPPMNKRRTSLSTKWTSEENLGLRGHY

[3] = biological target: T3, Heat shock factor protein 1 (Mus musculus, UniProt P38532); experiment: inhibition of MG132-induced HSE-luciferase signal, confirmation, cell-based, NIH3T3, luminescence, dose retest (AID 2382); assay type: functional;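 note: NIH3T3 fibroblasts with HSF1-driven luciferase reporter stressed by proteasome inhibitor MG132; luminescence from HSF1-driven luciferase expression after 8 hours of MG132 stress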
T3 sequence (P38532 whole entry): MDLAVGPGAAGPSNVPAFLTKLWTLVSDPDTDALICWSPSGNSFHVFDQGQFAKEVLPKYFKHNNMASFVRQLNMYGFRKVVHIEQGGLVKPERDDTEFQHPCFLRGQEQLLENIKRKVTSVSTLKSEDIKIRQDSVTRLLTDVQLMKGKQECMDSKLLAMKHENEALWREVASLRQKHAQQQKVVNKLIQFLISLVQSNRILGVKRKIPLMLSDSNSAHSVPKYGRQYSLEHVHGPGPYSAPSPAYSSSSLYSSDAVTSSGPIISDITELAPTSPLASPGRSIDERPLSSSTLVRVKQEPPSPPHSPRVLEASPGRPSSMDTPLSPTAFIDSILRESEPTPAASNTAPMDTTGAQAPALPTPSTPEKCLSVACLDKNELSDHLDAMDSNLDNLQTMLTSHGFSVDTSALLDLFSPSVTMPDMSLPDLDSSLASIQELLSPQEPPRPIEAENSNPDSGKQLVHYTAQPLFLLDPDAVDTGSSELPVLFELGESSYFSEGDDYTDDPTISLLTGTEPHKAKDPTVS

Cytochrome P450 1A2 = biological target: T4, Cytochrome P450 1A2 (Homo sapiens, UniProt P05177);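 note: PubChem cytochrome P450 panel assay, CYP1A2 panel member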
T4 sequence (P05177 whole entry): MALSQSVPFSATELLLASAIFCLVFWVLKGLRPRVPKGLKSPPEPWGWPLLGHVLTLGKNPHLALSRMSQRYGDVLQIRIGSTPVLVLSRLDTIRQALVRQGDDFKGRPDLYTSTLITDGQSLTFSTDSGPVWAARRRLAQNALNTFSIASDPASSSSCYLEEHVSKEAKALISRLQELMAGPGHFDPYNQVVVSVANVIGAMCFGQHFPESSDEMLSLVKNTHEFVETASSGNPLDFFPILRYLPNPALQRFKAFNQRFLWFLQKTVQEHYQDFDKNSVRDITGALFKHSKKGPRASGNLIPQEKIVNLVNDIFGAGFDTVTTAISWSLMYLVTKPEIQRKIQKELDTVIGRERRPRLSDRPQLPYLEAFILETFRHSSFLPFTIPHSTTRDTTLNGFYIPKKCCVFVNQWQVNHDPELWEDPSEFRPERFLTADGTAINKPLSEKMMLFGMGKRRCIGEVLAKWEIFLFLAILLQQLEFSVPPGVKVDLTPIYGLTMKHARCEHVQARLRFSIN

Cytochrome P450 3A4 [4] = biological target: T5, Cytochrome P450 3A4 (Homo sapiens, UniProt P08684)
Cytochrome P450 2C9 = Cytochrome P450 2C9 (Homo sapiens, UniProt P11712)
[5] = THP-1 cell cytotoxicity, dose response, cytotoxicity control for non-replicating M. tuberculosis project (AID 489025); assay type: functional
cells = assay type: functional
INS1 = experiment: beta cell apoptosis inhibitors, cytokine rescue, dose response, luminescence, retest (AID 449756); assay type: functional, cell-based; settings: Rattus norvegicus;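 note: cell death triggered by IL-1 beta plus TNF-alpha plus IFN-gamma mixture; protective hits raise ATP signal compared with cytokine alone wells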
Cytochrome P450 2C19 = Cytochrome P450 2C19 (Homo sapiens, UniProt P33261); experiment: Cytochrome panel assay with activity outcomes. Panel member name: p450-cyp2c19 Compounds with AC50 equal or less than 10 uM are considered active; assay type: functional
[6] = biological target: T6, High affinity choline transporter 1 (Homo sapiens, UniProt Q9GZV3); experiment: CHT inhibitors, dose response, cell-based, 5-point CRC, membrane potential dye (AID 504840); assay type: functional
T6 sequence (Q9GZV3 whole entry): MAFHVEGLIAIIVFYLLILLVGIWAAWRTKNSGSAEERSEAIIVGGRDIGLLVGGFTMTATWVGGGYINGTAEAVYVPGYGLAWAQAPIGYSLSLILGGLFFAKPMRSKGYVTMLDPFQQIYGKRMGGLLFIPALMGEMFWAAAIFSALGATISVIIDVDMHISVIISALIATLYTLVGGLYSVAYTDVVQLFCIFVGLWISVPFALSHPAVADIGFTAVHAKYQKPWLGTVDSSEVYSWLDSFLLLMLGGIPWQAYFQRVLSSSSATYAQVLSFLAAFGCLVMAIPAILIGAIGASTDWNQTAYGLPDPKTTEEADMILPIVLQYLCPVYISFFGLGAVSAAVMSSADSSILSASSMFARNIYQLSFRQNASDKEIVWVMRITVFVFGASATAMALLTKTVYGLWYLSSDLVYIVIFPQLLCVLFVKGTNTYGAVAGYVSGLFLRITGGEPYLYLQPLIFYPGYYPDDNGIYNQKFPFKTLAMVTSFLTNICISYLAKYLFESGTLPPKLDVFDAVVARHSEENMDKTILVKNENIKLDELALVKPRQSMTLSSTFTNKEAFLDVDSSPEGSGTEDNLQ

Cytochrome P450 2D6 = Cytochrome P450 2D6 (Homo sapiens, UniProt P10635);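 note: CYP2D6 member of a cytochrome P450 panel assay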
Nonstructural protein 1 = Nonstructural protein 1 (Influenza A virus, UniProt Q194T2); assay type: functional, Influenza A virus (A/California/07/2009(H1N1))
[7] = biological target: Delta-type opioid receptor (Homo sapiens, UniProt P41143); experiment: Counterscreen for agonists of heterodimerization of the mu 1 (OPRM1) and delta 1 (OPRD1) opioid receptors: Luminescence-based cell-based high throughput dose response assay to identify agonists of OPRD1 homodimerization. [Related pubchem assays (depositor defined):AID504326, AID504355, AID504692, AID504904, AID504905]; assay type: functional
Mu-type opioid receptor = Mu-type opioid receptor (Homo sapiens, UniProt P35372); experiment: Counterscreen for agonists of heterodimerization of the mu 1 (OPRM1) and delta 1 (OPRD1) opioid receptors: Luminescence-based cell-based high throughput dose response assay to identify agonists of OPRM1 homodimerization.; assay type: functional;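 note: U2OS cells expressing OPRM1 and beta-arrestin as split beta-galactosidase partners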
[8] = biological target: 5-hydroxytryptamine receptor 5A (Homo sapiens, UniProt P47898); experiment: Counterscreen for agonists of OPRM1-OPRD1 heterodimerization: luminescence-based cell-based high throughput dose response assay to identify agonists of 5-hydroxytryptamine (serotonin) 5A receptor (HTR5A). [Related pubchem assays (depositor defined):AID504326, AID504355, AID504692, AID504904, AID504905]; assay type: functional
Cytochrome P450 3A4 [9] = biological target: T5, Cytochrome P450 3A4; settings: Potency

Sequence of Nonstructural protein 1 (Q194T2 whole entry): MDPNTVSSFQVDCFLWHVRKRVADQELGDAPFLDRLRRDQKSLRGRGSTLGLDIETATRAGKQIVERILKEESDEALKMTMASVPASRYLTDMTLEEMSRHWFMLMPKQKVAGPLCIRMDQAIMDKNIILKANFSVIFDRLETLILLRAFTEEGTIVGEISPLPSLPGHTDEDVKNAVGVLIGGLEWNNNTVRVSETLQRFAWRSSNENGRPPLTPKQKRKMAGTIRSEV
T5 sequence (P08684 whole entry): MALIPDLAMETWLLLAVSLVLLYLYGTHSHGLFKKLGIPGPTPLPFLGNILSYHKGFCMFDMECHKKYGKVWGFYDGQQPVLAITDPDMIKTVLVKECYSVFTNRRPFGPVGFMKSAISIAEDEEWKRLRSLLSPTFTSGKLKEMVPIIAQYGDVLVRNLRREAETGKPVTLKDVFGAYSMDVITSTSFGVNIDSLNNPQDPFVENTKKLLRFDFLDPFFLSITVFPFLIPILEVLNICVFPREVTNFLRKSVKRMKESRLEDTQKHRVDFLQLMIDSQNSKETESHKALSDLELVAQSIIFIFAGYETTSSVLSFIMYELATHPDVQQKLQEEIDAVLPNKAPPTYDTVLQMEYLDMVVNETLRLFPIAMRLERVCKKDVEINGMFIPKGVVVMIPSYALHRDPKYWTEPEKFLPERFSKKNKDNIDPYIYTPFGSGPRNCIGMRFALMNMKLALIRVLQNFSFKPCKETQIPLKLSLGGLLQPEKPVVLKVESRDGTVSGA
Sequence of Delta-type opioid receptor (P41143 whole entry): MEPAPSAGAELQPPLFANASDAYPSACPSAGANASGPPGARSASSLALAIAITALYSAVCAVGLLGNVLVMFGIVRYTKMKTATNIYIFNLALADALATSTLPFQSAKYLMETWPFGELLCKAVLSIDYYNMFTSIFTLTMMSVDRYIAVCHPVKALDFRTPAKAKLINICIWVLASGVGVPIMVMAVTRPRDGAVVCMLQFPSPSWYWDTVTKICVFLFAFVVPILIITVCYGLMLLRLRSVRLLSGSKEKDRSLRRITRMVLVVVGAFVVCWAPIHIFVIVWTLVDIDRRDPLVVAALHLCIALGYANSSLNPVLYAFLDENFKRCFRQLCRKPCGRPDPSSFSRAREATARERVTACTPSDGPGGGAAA
Sequence of 5-hydroxytryptamine receptor 5A (P47898 whole entry): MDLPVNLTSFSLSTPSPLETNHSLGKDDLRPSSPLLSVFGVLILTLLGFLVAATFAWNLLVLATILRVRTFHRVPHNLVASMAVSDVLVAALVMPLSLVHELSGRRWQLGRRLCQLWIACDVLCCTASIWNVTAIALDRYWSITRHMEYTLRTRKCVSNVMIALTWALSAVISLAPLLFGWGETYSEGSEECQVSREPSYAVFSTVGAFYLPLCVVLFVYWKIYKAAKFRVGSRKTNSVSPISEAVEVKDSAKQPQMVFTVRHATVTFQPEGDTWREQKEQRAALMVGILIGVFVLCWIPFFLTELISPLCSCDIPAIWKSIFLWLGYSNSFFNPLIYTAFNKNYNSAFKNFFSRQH
Sequence of Mu-type opioid receptor (P35372 whole entry): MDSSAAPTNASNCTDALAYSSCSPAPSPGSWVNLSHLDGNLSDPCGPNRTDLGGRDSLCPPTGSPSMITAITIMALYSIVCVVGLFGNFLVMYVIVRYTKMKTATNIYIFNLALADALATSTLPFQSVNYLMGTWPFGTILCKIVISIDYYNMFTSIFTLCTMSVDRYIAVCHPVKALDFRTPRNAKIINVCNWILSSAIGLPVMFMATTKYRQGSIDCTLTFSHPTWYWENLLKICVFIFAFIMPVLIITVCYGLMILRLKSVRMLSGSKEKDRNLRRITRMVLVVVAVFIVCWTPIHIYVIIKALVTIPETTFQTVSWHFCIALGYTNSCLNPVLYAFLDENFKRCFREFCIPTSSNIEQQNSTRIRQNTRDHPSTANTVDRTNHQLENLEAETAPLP
Sequence of Cytochrome P450 2C9 (P11712 whole entry): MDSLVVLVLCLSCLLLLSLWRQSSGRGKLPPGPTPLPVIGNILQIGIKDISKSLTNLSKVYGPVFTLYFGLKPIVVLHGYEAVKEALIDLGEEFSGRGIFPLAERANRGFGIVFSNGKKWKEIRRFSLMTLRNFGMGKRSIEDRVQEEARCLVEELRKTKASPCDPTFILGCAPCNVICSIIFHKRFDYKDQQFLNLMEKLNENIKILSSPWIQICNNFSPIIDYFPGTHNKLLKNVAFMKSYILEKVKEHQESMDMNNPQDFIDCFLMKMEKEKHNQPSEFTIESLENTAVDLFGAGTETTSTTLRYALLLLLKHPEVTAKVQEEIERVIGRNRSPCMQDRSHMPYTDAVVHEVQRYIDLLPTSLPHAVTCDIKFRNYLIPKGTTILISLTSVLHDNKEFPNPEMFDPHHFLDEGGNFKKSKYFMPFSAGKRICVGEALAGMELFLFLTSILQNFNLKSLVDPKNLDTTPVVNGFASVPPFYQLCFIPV
Sequence of Cytochrome P450 2C19 (P33261 whole entry): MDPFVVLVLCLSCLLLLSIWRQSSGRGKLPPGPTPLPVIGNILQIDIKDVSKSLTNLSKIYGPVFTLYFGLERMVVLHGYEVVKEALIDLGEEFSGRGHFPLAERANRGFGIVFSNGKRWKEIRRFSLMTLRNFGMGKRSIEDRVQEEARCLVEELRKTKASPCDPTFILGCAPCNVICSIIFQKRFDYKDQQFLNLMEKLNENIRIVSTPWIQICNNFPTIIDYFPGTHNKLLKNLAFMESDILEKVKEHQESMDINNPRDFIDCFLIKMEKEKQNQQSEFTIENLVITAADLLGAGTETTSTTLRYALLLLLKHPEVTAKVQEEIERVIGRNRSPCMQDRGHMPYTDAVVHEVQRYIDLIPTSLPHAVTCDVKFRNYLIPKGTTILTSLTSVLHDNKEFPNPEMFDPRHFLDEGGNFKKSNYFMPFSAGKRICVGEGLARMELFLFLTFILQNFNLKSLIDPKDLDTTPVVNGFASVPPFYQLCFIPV
Sequence of Cytochrome P450 2D6 (P10635 whole entry): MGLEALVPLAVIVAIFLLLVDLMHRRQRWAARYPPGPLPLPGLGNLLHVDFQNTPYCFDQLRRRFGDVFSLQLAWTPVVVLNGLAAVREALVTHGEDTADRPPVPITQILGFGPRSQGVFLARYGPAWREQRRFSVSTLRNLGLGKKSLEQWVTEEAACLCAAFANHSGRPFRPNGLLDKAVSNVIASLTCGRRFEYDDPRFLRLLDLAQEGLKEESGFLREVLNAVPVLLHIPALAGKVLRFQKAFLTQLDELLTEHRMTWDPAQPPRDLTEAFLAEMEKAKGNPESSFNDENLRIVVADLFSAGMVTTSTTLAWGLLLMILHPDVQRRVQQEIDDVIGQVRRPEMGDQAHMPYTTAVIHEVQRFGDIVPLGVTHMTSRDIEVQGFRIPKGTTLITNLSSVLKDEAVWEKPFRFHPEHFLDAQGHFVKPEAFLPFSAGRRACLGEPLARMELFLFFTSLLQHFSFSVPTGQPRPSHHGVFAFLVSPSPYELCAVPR

In the case of `CC1(C)CC(=O)C2=C(C1)OC(N)=C(C#N)C2c1ccccc1` (stereo not drawn), the EC50 [1] is reported as > 300 µM (not active), the EC50 [2] is reported as > 300 µM (not active) and the EC50 [3] is reported as > 195 µM (not active).
For `COc1c2ccoc2nc2c(OC)c(OC[C@H](O)C(C)(C)O)ccc12`, the AC50 (Cytochrome P450 1A2) was 10 µM (inconclusive), the AC50 (Cytochrome P450 3A4 [4]) was 15.8 µM (inconclusive) and the AC50 (Cytochrome P450 2C9) was “inconclusive”.
In the case of `Cc1[nH]c2ccccc2c1-c1cc(-c2cc(-c3c(C)[nH]c4ccccc34)on2)no1`, the AC50 (Cytochrome P450 2C9) is reported as “inconclusive”.
With `CCOc1cc(-c2sc(Nc3cc(C)ccc3OC)n[n+]2-c2ccccc2)ccc1OC` the CC50 [5] was > 40 µM (active), the IC50 (cells) was > 50 µM (active) and the AC50 (INS1) was 12.9 µM (active).
For `Cc1cc(Cl)ccc1OC(C)C(=O)Nc1ccc(S(=O)(=O)Nc2cnc3ccccc3n2)cc1` (stereo not drawn), the AC50 (Cytochrome P450 2C19; read-out: AC50) was 14.1 µM (inconclusive), the IC50 [6] was 13.8 µM (active) and the AC50 (Cytochrome P450 2D6) was 28.2 µM (inconclusive).
In the case of `O=C(NC(=S)NNC(=O)c1ccccc1O)c1cccc([N+](=O)[O-])c1`, the IC50 (Nonstructural protein 1) is reported as 15.3 µM (active).
In the case of `CCOC(=O)c1c(C)c(C(=O)N2CCc3ccccc3C2)c(C)n1CC`, the IC50 [6] is reported as 13.8 µM (active).
With `COc1ccc(CCCc2nc3ccccc3[nH]2)cc1` the EC50 [1] was > 300 µM (not active) and the EC50 [2] was > 300 µM (not active).
With `Cc1c2ccccc2nc2c(F)c(NC(C)C)c(F)c(F)c12` the EC50 [1] was > 300 µM (not active) and the EC50 [2] was > 300 µM (not active).
In the case of `COc1ccc(Cc2nnc(NN)nc2O)cc1OC`, the IC50 (Nonstructural protein 1) is reported as 15.5 µM (active).
With `CN(C)S(=O)(=O)Oc1ccccc1C(=O)Nc1cccc(C(F)(F)F)c1` the AC50 (Cytochrome P450 2C9) was “inconclusive”.
With `CC(=O)N1c2ccc(S(=O)(=O)NCCC(=O)NC3CCCC(C)C3C)cc2CC1C` (stereo not drawn) the IC50 [6] was 13.2 µM (active).
In the case of `CCOC(=O)C1(CC2CCCCO2)CCN(Cc2nc(-c3cccs3)oc2C)CC1` (stereo not drawn), the EC50 [7] is reported as > 92.5 µM (inactive), the EC50 (Mu-type opioid receptor) is reported as > 92.5 µM (inactive) and the EC50 [8] is reported as > 92.5 µM (inactive).
For `CCc1ccc(NC(=O)Nc2ccc3c(c2)N(C)C(=O)CS3)cc1`, the EC50 [7] was 35.7 µM (inactive), the EC50 (Mu-type opioid receptor) was 36.7 µM (inactive) and the EC50 [8] was > 92.5 µM (inactive).
With `Cc1ccc(CC(=O)NCC(c2ccco2)N(C)C)cc1C` (stereo not drawn) the EC50 [7] was > 92.4 µM (inactive), the EC50 (Mu-type opioid receptor) was > 92.4 µM (inactive) and the EC50 [8] was > 92.4 µM (inactive).
In the case of `O=C(N[C@H]1C/C=C\C[C@H](CC(=O)N(CCO)Cc2ccccc2)C(=O)N[C@H](Cc2c[nH]c3ccccc23)COC1=O)OCC1c2ccccc2-c2ccccc21`, the EC50 [7] is reported as > 92.5 µM (inactive), the EC50 (Mu-type opioid receptor) is reported as > 92.5 µM (inactive) and the EC50 [8] is reported as > 92.5 µM (inactive).
For `COCCNC(=O)C1CC(c2cccc(OC)c2)=NO1` (stereo not drawn), the AC50 (Cytochrome P450 2C9) was “inconclusive”.
For `CCCN(C(=O)c1cn(CC)c2nc(C)ccc2c1=O)c1c(N)n(Cc2ccccc2)c(=O)[nH]c1=O`, the IC50 [6] was 12.6 µM (active).
In the case of `CC(=O)N/N=C/c1cc([N+](=O)[O-])ccc1OCCOc1ccccc1`, the AC50 (Cytochrome P450 2C19) is reported as “inconclusive” and the AC50 (Cytochrome P450 2C9) is reported as “inconclusive”.
In the case of `CN1CCN(CCC(=O)N/N=C/c2cc([N+](=O)[O-])ccc2O)CC1`, the IC50 (Nonstructural protein 1) is reported as 17.3 µM (active).
With `CCOC(=O)c1c(C)cc(O)c(C=O)c1O` [ETHYL HEMATOMMATE] the AC50 (Cytochrome P450 3A4 [9]) was 39.8 µM (inconclusive).
In the case of `C/C=C/c1ccc2c(c1)OCO2` [ISOSAFROLE], the AC50 (Cytochrome P450 3A4 [9]) is reported as 25.1 µM (inconclusive).
With `COC(=O)[C@@H]1[C@H]2C[C@H]3c4[nH]c5ccccc5c4CCN3C[C@@H]2CC[C@@H]1O` [YOHIMBINE] the EC50 [1] was > 300 µM (not active) and the EC50 [2] was 103 µM (active).
